The Kd is the constant that tells how readily two partners part at equilibrium. The low end stands for higher affinity, the high end for lower affinity.

One compound from publication PMC12335474 (Communications Biology, 2025) can be followed below.

Assay [1] deals with MLCK (myosin light chain kinase, smooth muscle) (Homo sapiens, UniProt Q15746, N1725A). Put plainly: SPR. The assay is classed as binding.
Assay [2] deals with MLCK (myosin light chain kinase, smooth muscle) (Homo sapiens, UniProt Q15746). Put plainly: SPR. Type of assay: binding.
Sequence of MLCK (myosin light chain kinase, smooth muscle) (Homo sapiens, UniProt Q15746) (Q15746 whole entry): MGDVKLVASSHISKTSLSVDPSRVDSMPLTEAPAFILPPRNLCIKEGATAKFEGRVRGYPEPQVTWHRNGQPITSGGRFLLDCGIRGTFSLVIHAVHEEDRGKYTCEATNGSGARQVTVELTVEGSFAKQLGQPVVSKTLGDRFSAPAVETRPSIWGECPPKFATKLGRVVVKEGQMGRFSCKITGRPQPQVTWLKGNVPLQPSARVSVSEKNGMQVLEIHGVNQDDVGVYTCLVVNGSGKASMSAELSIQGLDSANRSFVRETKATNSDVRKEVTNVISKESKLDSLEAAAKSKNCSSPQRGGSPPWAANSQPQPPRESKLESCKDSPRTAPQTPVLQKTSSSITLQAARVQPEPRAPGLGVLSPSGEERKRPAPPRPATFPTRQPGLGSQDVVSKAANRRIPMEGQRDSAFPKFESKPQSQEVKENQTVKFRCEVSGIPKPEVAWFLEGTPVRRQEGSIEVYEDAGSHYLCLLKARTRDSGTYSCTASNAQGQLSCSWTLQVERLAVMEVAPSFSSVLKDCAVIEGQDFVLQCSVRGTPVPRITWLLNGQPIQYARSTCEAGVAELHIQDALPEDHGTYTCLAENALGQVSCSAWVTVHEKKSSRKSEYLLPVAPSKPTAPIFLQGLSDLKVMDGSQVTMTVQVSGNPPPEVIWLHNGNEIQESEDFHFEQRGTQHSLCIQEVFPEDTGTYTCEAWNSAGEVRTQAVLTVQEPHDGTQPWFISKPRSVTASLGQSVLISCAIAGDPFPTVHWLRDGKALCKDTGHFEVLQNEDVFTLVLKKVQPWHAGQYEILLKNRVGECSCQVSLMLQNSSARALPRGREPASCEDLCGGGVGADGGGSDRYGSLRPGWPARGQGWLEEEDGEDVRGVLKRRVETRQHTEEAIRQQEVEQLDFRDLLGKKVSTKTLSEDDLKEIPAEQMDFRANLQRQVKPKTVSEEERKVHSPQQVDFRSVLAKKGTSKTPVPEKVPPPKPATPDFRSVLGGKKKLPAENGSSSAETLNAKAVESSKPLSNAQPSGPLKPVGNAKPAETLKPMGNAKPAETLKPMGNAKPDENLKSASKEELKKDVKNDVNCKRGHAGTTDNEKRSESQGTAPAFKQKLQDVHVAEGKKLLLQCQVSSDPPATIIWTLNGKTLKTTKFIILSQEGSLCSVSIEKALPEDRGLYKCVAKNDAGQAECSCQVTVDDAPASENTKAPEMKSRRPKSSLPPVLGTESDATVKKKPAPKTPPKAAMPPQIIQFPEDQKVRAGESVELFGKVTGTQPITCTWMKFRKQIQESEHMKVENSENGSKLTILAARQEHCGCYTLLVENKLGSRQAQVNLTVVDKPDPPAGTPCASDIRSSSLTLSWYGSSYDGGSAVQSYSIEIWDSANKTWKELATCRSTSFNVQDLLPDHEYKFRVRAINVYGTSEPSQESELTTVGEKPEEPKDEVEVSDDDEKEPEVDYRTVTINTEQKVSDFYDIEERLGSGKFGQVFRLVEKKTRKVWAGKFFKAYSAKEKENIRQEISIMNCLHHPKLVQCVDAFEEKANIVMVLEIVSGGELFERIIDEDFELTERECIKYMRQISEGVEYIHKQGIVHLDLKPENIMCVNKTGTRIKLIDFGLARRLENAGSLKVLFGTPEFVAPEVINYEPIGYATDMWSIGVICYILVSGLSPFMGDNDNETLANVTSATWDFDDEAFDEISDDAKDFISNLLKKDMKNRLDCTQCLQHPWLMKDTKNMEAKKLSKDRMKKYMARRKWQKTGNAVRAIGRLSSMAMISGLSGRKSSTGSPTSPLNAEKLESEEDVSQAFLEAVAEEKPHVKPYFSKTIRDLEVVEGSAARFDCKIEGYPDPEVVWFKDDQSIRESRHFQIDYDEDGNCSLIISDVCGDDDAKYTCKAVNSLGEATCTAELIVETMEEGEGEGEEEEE

Sequence of MLCK (myosin light chain kinase, smooth muscle) (Homo sapiens, UniProt Q15746, N1725A) (Q15746 923-1914 N1725A): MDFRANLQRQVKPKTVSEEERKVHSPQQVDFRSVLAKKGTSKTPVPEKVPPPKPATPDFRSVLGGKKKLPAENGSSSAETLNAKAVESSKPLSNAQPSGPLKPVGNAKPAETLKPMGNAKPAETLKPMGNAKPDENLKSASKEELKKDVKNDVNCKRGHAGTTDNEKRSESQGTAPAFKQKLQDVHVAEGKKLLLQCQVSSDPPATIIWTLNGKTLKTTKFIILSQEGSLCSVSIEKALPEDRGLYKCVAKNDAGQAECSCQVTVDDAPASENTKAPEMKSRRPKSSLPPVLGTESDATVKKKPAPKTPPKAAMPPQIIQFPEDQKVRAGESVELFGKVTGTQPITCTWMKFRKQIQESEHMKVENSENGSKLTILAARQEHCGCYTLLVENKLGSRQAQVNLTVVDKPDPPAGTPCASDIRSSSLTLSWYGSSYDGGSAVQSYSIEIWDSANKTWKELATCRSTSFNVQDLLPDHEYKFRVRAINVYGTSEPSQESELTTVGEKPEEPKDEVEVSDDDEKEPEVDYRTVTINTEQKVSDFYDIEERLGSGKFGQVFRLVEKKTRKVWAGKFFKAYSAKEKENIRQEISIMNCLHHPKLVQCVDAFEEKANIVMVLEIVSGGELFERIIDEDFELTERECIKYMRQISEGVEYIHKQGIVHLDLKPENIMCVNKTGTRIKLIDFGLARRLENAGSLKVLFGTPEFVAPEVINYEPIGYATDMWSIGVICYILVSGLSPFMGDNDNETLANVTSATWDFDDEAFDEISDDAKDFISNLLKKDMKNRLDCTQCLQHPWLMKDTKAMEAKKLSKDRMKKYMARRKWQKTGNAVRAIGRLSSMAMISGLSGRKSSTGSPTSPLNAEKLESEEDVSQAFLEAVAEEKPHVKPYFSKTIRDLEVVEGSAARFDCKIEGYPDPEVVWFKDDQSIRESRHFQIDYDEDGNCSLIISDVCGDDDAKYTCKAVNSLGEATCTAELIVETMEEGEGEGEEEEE

For the compound `O=c1[nH]c(=O)c2[nH]c(=O)[nH]c2[nH]1` [UA, uric acid], the Kd in assay [1] came to 312 µM; in assay [2], 257 µM.
